Source: PubChem BioAssay AID1963843 (Molecular Pharmacology Branch, DTP, NCI, 2024)

Test system: 616215-338-R-J1-PDC complex spheroid viability
Test: Anticancer human tumor 616215-338-R-J1-PDC patient-derived colon adenocarcinoma cell line growth inhibition [POLQ]
Conditions: for IC50: curve of first compound; for viability, T/C: stronger effect = lower value
Description: Multicellular complex tumor spheroid response to Polymerase (POL) inhibitors (novobiocin, ART-558, RP6685) in combination with a variety of drugs and investigational agents in selected tumor cell lines
The POL inhibitors (novobiocin, ART-558, and RP6685) were evaluated both individually and in combination with standard of care and investigational anticancer small molecules within a complex spheroid model of solid tumors. . Complex spheroids include a stromal component modeled by human endothelial cells (HUVEC) and fibroblasts modeled by human mesenchymal stem cells (MSCs). The concentration ranges selected for each drug and investigational agent were based upon clinically achievable concentrations if the clinical Cmax of the agent was known.
Compounds. The drugs and investigational agents: novobiocin (NSC847541), ART-558 (NSC835418), RP-6685 (NSC848927), peposertib (NSC802822), ceralasertib (NSC780249), elimusertib (NSC800525), camonsertib (NSC841442), AZD-1390 (NSC803789), olaparib (NSC753686), talazoparib (NSC767125), rucaparib (NSC756644), sotorasib (NSC818433), MRTX-1133 (NSC836407), SN-38 (NSC673596), topotecan (NSC609699), epotoside (NSC141540), doxorubicin (NSC123127), gemcitabine (NSC613327), 5-fluorouracil (NSC19893), paclitaxel (NSC125973), vemurafenib (NSC761431), MSA-2 (NSC828583), SN-011 (NSC837082), adavosertib (NSC754352), prexasertib (NSC758257), carboplatin (NSC241240) and oxaliplatin (NSC266046), were obtained from the National Cancer Institute (NCI) Developmental Therapeutics Program Chemical Repository (21). The FDA-approved anticancer drug set is available from the Developmental Therapeutics Program at https://dtp.cancer.gov/organization/dscb/obtaining/. […] The stock solutions were prepared in dimethyl sulfoxide (DMSO, Sigma-Aldrich, St. Louis, MO, cat. D2650), except for the platinum compounds which were prepared in saline (Quality Biological, Gaithersburg, MD, cat. 114-055-101), at 800-fold the tested concentration and stored at -70 degrees C prior to their use. All drugs and investigational agents were tested over a range starting from a high concentration at or near the clinical Cmax and decreasing in half-log increments. If the clinical Cmax for an agent had not been determined, the highest concentration tested was 10 microM, except for SN-38, which was tested at a high concentration of 1 microM.
Cell Culture. All cells were maintained in an incubator at 37 degrees C and 5% CO2 with 95% humidity. The PDC lines were cultured according to standard operating procedures established by the NCI PDMR (https://pdmr.cancer.gov). Table 3 of the manuscript, lists the cell lines along with the number of the three cell types plated to form the mct-spheroids and media for tumor cell growth. After thawing, all PDC lines, except 997537-175-T-J1-PDC and 415267-285-R-J2-PDC, were cultured in Matrigel-coated flasks prepared with a working solution of 1X Ham's F-12 nutrient mix, without supplementation (Thermo Fisher Scientific, cat. 11765054), 100 U/mL penicillin-streptomycin (Thermo Fisher Scientific, cat. 15140122), and 2.5% Matrigel (Corning Inc., Corning, NY, cat. 354248) for the first three passages. The two PDC lines 997537-175-T-J1-PDC and 415267-285-R-J2-PDC were cultured on uncoated flasks. The 857933-349-R-J2-PDC line was cultured in 6C/Colon 1B media containing advanced DMEM/F-12 (Thermo Fisher Scientific, cat. 12634028), 10 mM HEPES (Thermo Fisher Scientific, cat. 15630080), 1X GlutaMAX supplement (Thermo Fisher Scientific, cat. 35050061), 0.1 mg/mL primocin (InvivoGen, San Diego, CA, cat. ant-pm-2), 10% defined fetal bovine serum, heat inactivated (HyClone Laboratories Inc., Logan, UT, cat. SH30070.03HI), 50% L-WRN conditioned media (ATCC, cat. CRL-3276), 1.25 mM N-Acetyl-L-cysteine (Sigma-Aldrich, cat. A9165), 10 mM nicotinamide (Sigma-Aldrich, cat. N0636), 1X B-27 supplement (Thermo Fisher Scientific, cat. 17504044), 1X N-2 supplement (Thermo Fisher Scientific, cat. […]

[1] = second compound 0.0316 µM, first compound 0.0316 µM
[2] = second compound 0.0316 µM, first compound 0.1 µM
[3] = second compound 0.0316 µM, first compound 0.316 µM
[4] = second compound 0.0316 µM, first compound 1 µM
[5] = second compound 0.0316 µM, first compound 3.16 µM
[6] = second compound 0.0316 µM, first compound 10 µM
[7] = second compound 0.1 µM, first compound 0.0316 µM
[8] = second compound 0.1 µM, first compound 0.1 µM
[9] = second compound 0.1 µM, first compound 0.316 µM
[10] = second compound 0.1 µM, first compound 1 µM
[11] = second compound 0.1 µM, first compound 3.16 µM
[12] = second compound 0.1 µM, first compound 10 µM
[13] = second compound 0.316 µM, first compound 0.0316 µM
[14] = second compound 0.316 µM, first compound 0.1 µM
[15] = second compound 0.316 µM, first compound 0.316 µM
[16] = second compound 0.316 µM, first compound 1 µM
[17] = second compound 0.316 µM, first compound 3.16 µM
[18] = second compound 0.316 µM, first compound 10 µM
[19] = second compound 1 µM, first compound 0.0316 µM
[20] = second compound 1 µM, first compound 0.1 µM
[21] = second compound 1 µM, first compound 0.316 µM
[22] = second compound 1 µM, first compound 1 µM
[23] = second compound 1 µM, first compound 3.16 µM
[24] = second compound 1 µM, first compound 10 µM
[25] = second compound 3.16 µM, first compound 0.0316 µM
[26] = second compound 3.16 µM, first compound 0.1 µM
[27] = second compound 3.16 µM, first compound 0.316 µM
[28] = second compound 3.16 µM, first compound 1 µM
[29] = second compound 3.16 µM, first compound 3.16 µM
[30] = second compound 3.16 µM, first compound 10 µM
[31] = second compound 10 µM, first compound 0.0316 µM
[32] = second compound 10 µM, first compound 0.1 µM
[33] = second compound 10 µM, first compound 0.316 µM
[34] = second compound 10 µM, first compound 1 µM
[35] = second compound 10 µM, first compound 3.16 µM
[36] = second compound 10 µM, first compound 10 µM
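Also: spheroids exposed to compounds for one week before readout.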
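For viability, T/C in this document: percent viability relative to DMSO vehicle wells taken as 100%.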

SMILES: O=C(Nc1ccc(O)c(NS(=O)(=O)c2ccc(F)cc2)c1)c1ccc(-c2ccccc2)cc1 + COC1C(OC(N)=O)C(O)C(Oc2ccc3c(O)c(NC(=O)c4ccc(O)c(CC=C(C)C)c4)c(=O)oc3c2C)OC1(C)C
- IC50 (second compound 0.0316 µM): > 10 µM
- IC50 (second compound 0.1 µM): > 10 µM
- IC50 (second compound 0.316 µM): > 10 µM
- IC50 (second compound 1 µM): > 10 µM
- IC50 (second compound 3.16 µM): > 10 µM
- IC50 (second compound 10 µM): > 10 µM
- viability, T/C [1]: 103%
- viability, T/C [2]: 103%
- viability, T/C [3]: 104%
- viability, T/C [4]: 109%
- viability, T/C [5]: 118%
- viability, T/C [6]: 97.8%
- viability, T/C [7]: 102%
- viability, T/C [8]: 100%
- viability, T/C [9]: 103%
- viability, T/C [10]: 95.1%
- viability, T/C [11]: 99.6%
- viability, T/C [12]: 118%
- viability, T/C [13]: 101%
- viability, T/C [14]: 98.3%
- viability, T/C [15]: 91.3%
- viability, T/C [16]: 93.8%
- viability, T/C [17]: 106%
- viability, T/C [18]: 92.2%
- viability, T/C [19]: 105%
- viability, T/C [20]: 107%
- viability, T/C [21]: 101%
- viability, T/C [22]: 116%
- viability, T/C [23]: 101%
- viability, T/C [24]: 105%
- viability, T/C [25]: 102%
- viability, T/C [26]: 105%
- viability, T/C [27]: 100%
- viability, T/C [28]: 105%
- viability, T/C [29]: 107%
- viability, T/C [30]: 93.9%
- viability, T/C [31]: 108%
- viability, T/C [32]: 100%
- viability, T/C [33]: 98.5%
- viability, T/C [34]: 103%
- viability, T/C [35]: 107%
- viability, T/C [36]: 88.8%

SMILES: CNCc1ccc(-c2[nH]c3cc(F)cc4c3c2CCNC4=O)cc1 + Cc1cccc(N(C)C(=O)C2C(O)CCN2c2nc(C)cc(C(F)(F)F)c2C#N)c1
- IC50 (second compound 0.0316 µM): > 10 µM
- IC50 (second compound 0.1 µM): > 10 µM
- IC50 (second compound 0.316 µM): > 10 µM
- IC50 (second compound 1 µM): > 10 µM
- IC50 (second compound 3.16 µM): > 10 µM
- IC50 (second compound 10 µM): > 10 µM
- viability, T/C [1]: 96.9%
- viability, T/C [2]: 99.2%
- viability, T/C [3]: 105%
- viability, T/C [4]: 105%
- viability, T/C [5]: 106%
- viability, T/C [6]: 86.2%
- viability, T/C [7]: 101%
- viability, T/C [8]: 97.7%
- viability, T/C [9]: 95.5%
- viability, T/C [10]: 101%
- viability, T/C [11]: 108%
- viability, T/C [12]: 73.8%
- viability, T/C [13]: 99.8%
- viability, T/C [14]: 103%
- viability, T/C [15]: 96.6%
- viability, T/C [16]: 105%
- viability, T/C [17]: 105%
- viability, T/C [18]: 72.8%
- viability, T/C [19]: 107%
- viability, T/C [20]: 108%
- viability, T/C [21]: 102%
- viability, T/C [22]: 103%
- viability, T/C [23]: 112%
- viability, T/C [24]: 70%
- viability, T/C [25]: 111%
- viability, T/C [26]: 109%
- viability, T/C [27]: 111%
- viability, T/C [28]: 104%
- viability, T/C [29]: 102%
- viability, T/C [30]: 65.4%
- viability, T/C [31]: 122%
- viability, T/C [32]: 105%
- viability, T/C [33]: 109%
- viability, T/C [34]: 107%
- viability, T/C [35]: 108%
- viability, T/C [36]: 74.7%
